Measured values: patent US12441768B2, “Compositions and methods for treating endometriosis” (EndoMet Biosciences, Inc., priority 2018, dated 2025)
pEC50, pKd: −log10 of the molar value. Where a SMILES comes first, the peptide text is derived from it.

What was measured:
β-catenin = target: T1, β-catenin (Homo sapiens, UniProt P35222); test: KD50 measurement using competitive fluorescence polarization (FP) with labelled TCF4; assay type: binding; conditions: fluorescence polarization, β-catenin; for pKd: read-out: β-Cat FP KD
T1 sequence (P35222 1-781): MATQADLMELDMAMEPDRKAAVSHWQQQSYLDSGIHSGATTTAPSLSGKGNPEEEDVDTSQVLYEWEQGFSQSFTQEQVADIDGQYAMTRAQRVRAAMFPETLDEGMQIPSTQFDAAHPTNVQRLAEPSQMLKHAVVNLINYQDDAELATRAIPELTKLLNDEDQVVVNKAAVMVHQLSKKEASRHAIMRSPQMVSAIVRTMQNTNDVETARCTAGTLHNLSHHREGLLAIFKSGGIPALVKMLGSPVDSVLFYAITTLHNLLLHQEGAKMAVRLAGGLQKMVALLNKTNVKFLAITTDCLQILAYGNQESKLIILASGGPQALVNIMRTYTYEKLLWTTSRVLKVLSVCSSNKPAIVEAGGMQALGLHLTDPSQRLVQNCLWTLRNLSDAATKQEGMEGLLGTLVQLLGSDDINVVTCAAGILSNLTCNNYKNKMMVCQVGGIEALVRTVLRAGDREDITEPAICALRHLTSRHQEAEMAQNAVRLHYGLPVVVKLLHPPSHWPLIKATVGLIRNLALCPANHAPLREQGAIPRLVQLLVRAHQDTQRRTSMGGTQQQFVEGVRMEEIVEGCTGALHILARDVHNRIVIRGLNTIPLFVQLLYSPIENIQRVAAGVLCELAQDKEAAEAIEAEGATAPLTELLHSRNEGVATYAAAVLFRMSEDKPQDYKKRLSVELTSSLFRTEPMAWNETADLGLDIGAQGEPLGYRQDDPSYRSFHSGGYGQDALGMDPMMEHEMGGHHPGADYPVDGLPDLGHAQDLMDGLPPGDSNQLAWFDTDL
Summary of the method: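 Labelled TCF4 (5 nM) mixed with 100 nM β-catenin at room temperature; inhibitor added as serial dilutions from 10 nM to 30 uM. Polarization read at excitation 470 nm/emission 520 nm; binding displacement lowers polarization. Three independent runs.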

[1] = % Viability non-Wnt responsive cells
[2] = target: Wnt-responsive promoter (TCF/LEF); test: Wnt-dependent luciferase reporter assay; assay type: cell-based, murine
Summary of the method: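 Murine 3T3 fibroblasts carrying a TCF/LEF-driven luciferase reporter, stimulated with Wnt3a in the presence of increasing peptide concentrations or vehicle. Luminescence inhibition gave EC50 values in uM.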

| SMILES | β-Cat FP Hill slope (β-catenin) | pKd (β-catenin) | viability [1] [%] | pEC50 [2] |
| --- | --- | --- | --- | --- |
| CC[C@H](C)[C@H](NC(=O)[C@H](CC(C)C)NC(=O)[C@@H](NC(=O)[C@H](Cc1c[nH]c2ccccc12)NC(=O)[C@@H](N)CCSC)[C@@H](C)CC)C(=O)N[C@@H](CO)C(=O)N[C@@H](CO)C(=O)N[C@@H](Cc1c[nH]c2ccccc12)C(=O)NCC(=O)O [compound 129] (H-MWILISSWG-OH) | 0.87 | 6.00 to 6.40 | 134 | > 5.12 |
| CSCC[C@H](NC(=O)[C@H](CCCNC(=N)N)NC(=O)[C@H](CO)NC(=O)[C@@H](N)CCSC)C(=O)N[C@@H](Cc1c[nH]c2ccccc12)C(=O)N[C@@H](Cc1ccccc1)C(=O)N[C@@H](CC(C)C)C(=O)N[C@@H](CC(N)=O)C(=O)N[C@@H](CO)C(=O)N[C@@H](Cc1ccccc1)C(=O)N[C@@H](Cc1c[nH]c2ccccc12)C(=O)NCC(=O)O [compound 70] (H-MSRMWFLNSFWG-OH) | – | < 4.52 | 98.5 | < 4.52 |
| CC[C@H](C)[C@H](NC(=O)[C@H](CC(C)C)NC(=O)[C@H](Cc1ccccc1)NC(=O)[C@H](Cc1c[nH]c2ccccc12)NC(=O)[C@@H](N)CCSC)C(=O)N[C@@H](CS)C(=O)N[C@@H](Cc1cn(C)cn1)C(=O)N[C@@H](Cc1c[nH]c2ccccc12)C(=O)NCC(=O)O [compound 140] (HELM PEPTIDE1{M.W.F.L.I.C.[Cn1cnc(C[C@H](N[*:1])C(=O)[*:2])c1].W.G}$$$$V2.0) | 0.7 | – | 102 | 4.65 to 4.82 |
| CC[C@H](C)[C@H](NC(=O)[C@H](CC(C)C)NC(=O)[C@H](Cc1ccccc1)NC(=O)[C@H](Cc1c[nH]c2ccccc12)NC(=O)[C@H](Cc1c[nH]c2ccccc12)NC(=O)[C@H](CCCNC(=N)N)NC(=O)[C@H](CO)NC(=O)[C@@H](N)CCSC)C(=O)N[C@@H](CO)C(=O)N[C@@H](Cc1ccccc1)C(=O)N[C@@H](Cc1c[nH]c2ccccc12)C(N)=O [compound 78] (H-MSRWWFLISFW-NH2) | – | < 4.52 | 101 | < 4.52 |
| CC[C@H](C)[C@H](NC(=O)[C@H](CC(C)C)NC(=O)[C@H](Cc1ccccc1)NC(=O)[C@H](Cc1c[nH]c2ccccc12)NC(=O)[C@@H](N)CCSC)C(=O)N[C@@H](C)C(=O)N[C@@H](C)C(=O)N[C@@H](Cc1c[nH]c2ccccc12)C(=O)NCC(=O)O [compound 212] (H-MWFLIAAWG-OH) | 1.05 | 6.00 to 6.40 | 99.3 | > 5.12 |
| CC[C@H](C)[C@H](NC(=O)[C@H](CC(C)C)NC(=O)[C@H](Cc1ccccc1)NC(=O)[C@H](Cc1c[nH]c2ccccc12)NC(=O)[C@H](CCSC)NC(=O)[C@H](CCCNC(=N)N)NC(=O)[C@H](CO)NC(=O)[C@@H](N)CCSC)C(=O)N[C@@H](CO)C(=O)N[C@@H](Cc1ccccc1)C(=O)N[C@@H](Cc1c[nH]c2ccccc12)C(=O)N[C@@H](CCCNC(=N)N)C(=O)NCC(=O)O [compound 58] (H-MSRMWFLISFWRG-OH) | – | < 4.52 | 106 | 4.52 to 4.65 |
| CC[C@H](C)[C@@H]1NC(=O)[C@H](CC(C)C)NC(=O)[C@H](Cc2ccccc2)NC(=O)[C@H](Cc2c[nH]c3ccccc23)NC(=O)[C@@H](NC(C)=O)CCCCNC(=O)CC[C@@H](C(=O)O)NC(=O)[C@H](Cc2c[nH]c3ccccc23)NC(=O)[C@H](Cc2ccccc2)NC(=O)[C@H](CS)NC1=O [compound 185] (HELM PEPTIDE1{[ac].K.W.F.L.I.C.F.W.E}$PEPTIDE1,PEPTIDE1,2:R3-10:R3$$$V2.0) | 1.32 | > 6.40 | 87.8 | 4.52 to 4.65 |
| CC[C@H](C)[C@H](NC(=O)[C@H](CC(C)C)NC(=O)[C@H](Cc1ccccc1)NC(=O)[C@H](Cc1c[nH]c2ccccc12)NC(=O)[C@@H](N)CCSC)C(=O)N[C@@H](CCC(N)=O)C(=O)N[C@@H](Cc1ccccc1)C(=O)N[C@@H](Cc1ccc(O)cc1)C(=O)NCC(=O)O [compound 149] (H-MWFLIQFYG-OH) | 0.75 | 6.00 to 6.40 | 104 | 4.82 to 5.12 |
| CC[C@H](C)[C@H](NC(=O)[C@H](CC(C)C)NC(=O)[C@H](Cc1ccccc1)NC(=O)[C@H](Cc1c[nH]c2ccccc12)NC(=O)[C@@H](N)CCSC)C(=O)N[C@@H](CO)C(=O)N[C@@H](C)C(=O)N[C@@H](Cc1c[nH]c2ccccc12)C(=O)NCC(=O)O [compound 160] (H-MWFLISAWG-OH) | – | < 4.52 | 102 | > 5.12 |
| CC[C@H](C)[C@@H]1NC(=O)[C@H](CC(C)C)NC(=O)[C@H](Cc2ccccc2)NC(=O)[C@H](Cc2c[nH]c3ccccc23)NC(=O)[C@H](CCSC)NC(=O)[C@@H](NC(C)=O)CCCCNC(=O)CC[C@@H](C(=O)O)NC(=O)[C@H](Cc2c[nH]c3ccccc23)NC(=O)[C@H](Cc2ccccc2)NC(=O)[C@H](CS)NC1=O [compound 186] (HELM PEPTIDE1{[ac].K.M.W.F.L.I.C.F.W.E}$PEPTIDE1,PEPTIDE1,2:R3-11:R3$$$V2.0) | 1.07 | 6.00 to 6.40 | 96.4 | < 4.52 |
| CC[C@H](C)[C@@H]1NC(=O)[C@H](CC(C)C)NC(=O)[C@H](Cc2ccccc2)NC(=O)[C@H](Cc2c[nH]c3ccccc23)NC(=O)[C@H](CCSC)NC(=O)CCCNC(=O)C[C@@H](C(=O)O)NC(=O)[C@H](Cc2c[nH]c3ccccc23)NC(=O)[C@H](C)NC(=O)[C@H](CS)NC1=O [compound 191] (HELM PEPTIDE1{[O=C(CCCN[*:1])[*:2]].M.W.F.L.I.C.A.W.D}$PEPTIDE1,PEPTIDE1,1:R1-10:R3$$$V2.0) | 1.3 | 6.00 to 6.40 | 99.1 | 4.82 to 5.12 |
| CC[C@H](C)[C@H](NC(=O)[C@H](CC(C)C)NC(=O)[C@H](CC1CCCCC1)NC(=O)[C@H](Cc1c[nH]c2ccccc12)NC(=O)[C@H](CCSC)NC(C)=O)C(=O)N[C@@H](CO)C(=O)N[C@@H](Cc1ccccc1)C(=O)N[C@@H](Cc1c[nH]c2ccccc12)C(=O)NCC(=O)O [compound 216] (HELM PEPTIDE1{[ac].M.W.[Cha].L.I.S.F.W.G}$$$$V2.0) | 1.35 | 6.00 to 6.40 | 100 | > 5.12 |
| CC[C@H](C)[C@H](NC(=O)[C@H](CC(C)C)NC(=O)[C@H](Cc1ccccc1)NC(=O)[C@H](Cc1c[nH]c2ccccc12)NC(=O)[C@H](CCSC)NC(=O)[C@H](CCCNC(=N)N)NC(=O)[C@H](CO)NC(=O)[C@@H](N)CCSC)C(=O)N[C@@H](CO)C(=O)N[C@@H](Cc1ccccc1)C(=O)N[C@@H](Cc1c[nH]c2ccccc12)C(=O)NCC(=O)O [compound 41] (H-MSRMWFLISFWG-OH) | – | < 4.52 | 96.1 | > 5.12 |
| CCCCCC[C@H](N)C(=O)N[C@@H](Cc1c[nH]c2ccccc12)C(=O)N[C@@H](Cc1ccccc1)C(=O)N[C@@H](CC(C)C)C(=O)N[C@H](C(=O)N[C@@H](CS)C(=O)N[C@@H](Cc1ccccc1)C(=O)N[C@@H](Cc1c[nH]c2ccccc12)C(=O)NCC(=O)O)[C@@H](C)CC [compound 139] (HELM PEPTIDE1{[CCCCCC[C@H](N)C(=O)[*:2]].W.F.L.I.C.F.W.G}$$$$V2.0) | – | < 4.52 | 99.5 | < 4.52 |
| CC[C@H](C)[C@@H]1NC(=O)[C@H](CC(C)C)NC(=O)[C@H](Cc2ccccc2)NC(=O)[C@H](Cc2c[nH]c3ccccc23)NC(=O)[C@@H](NC(C)=O)CC(=O)NCCCC[C@@H](C(=O)NCC(=O)O)NC(=O)[C@H](Cc2c[nH]c3ccccc23)NC(=O)[C@H](Cc2ccccc2)NC(=O)[C@H](CS)NC1=O [compound 175] (HELM PEPTIDE1{[ac].D.W.F.L.I.C.F.W.K.G}$PEPTIDE1,PEPTIDE1,2:R3-10:R3$$$V2.0) | 0.7 | 4.52 to 5.00 | 100 | 4.82 to 5.12 |
| CC[C@H](C)[C@H](NC(=O)[C@H](CC(C)C)NC(=O)[C@@H](NC(=O)[C@H](Cc1c[nH]c2ccccc12)NC(=O)[C@@H](N)Cc1c[nH]cn1)[C@@H](C)CC)C(=O)N[C@@H](CS)C(=O)N[C@@H](Cc1ccccc1)C(=O)N[C@@H](Cc1c[nH]c2ccccc12)C(=O)NCC(=O)O [compound 118] (H-HWILICFWG-OH) | – | < 4.52 | 99.9 | > 5.12 |
| CSCC[C@H](NC(=O)[C@H](CCCNC(=N)N)NC(=O)[C@H](CO)NC(=O)[C@@H](N)CCSC)C(=O)N[C@@H](Cc1c[nH]c2ccccc12)C(=O)N[C@@H](Cc1ccccc1)C(=O)N[C@@H](CC(C)C)C(=O)N[C@H](C(=O)N[C@@H](CO)C(=O)N[C@@H](Cc1ccccc1)C(=O)N[C@@H](Cc1c[nH]c2ccccc12)C(=O)NCC(=O)O)C(C)C [compound 56] (H-MSRMWFLVSFWG-OH) | – | < 4.52 | 100 | 4.82 to 5.12 |
